Laboratory results: US20260265216A1, “NOVEL THIOREDOXIN REDUCTASE INHIBITORS” (GENEXPLAIN GMBH, priority 2021, published 2026)
Structures can show the parent of a compound that is named as a salt.

Experiments:
HCT116-Cas9 = assay: Growth suppression assay (resazurin); format: cell-based; settings: 48 hours
Description: (§1) Cells were grown in 96-well plates at a density of 3000 cells per well with or without doxycycline and treated with compounds. After 48 hours of incubation the proliferative cell reagent resazurin (Thermo Fisher Scientific) was added to the cells. The degree of resazurin reduction, which reflects cell viability, was measured by microplate reader by monitoring the absorbance at 570 nm and 600 nm, according to the manufacturer.
(§2) Two carcinoma cell lines, MCF7 (breast carcinoma) and HCT116 (colon carcinoma) grown in 96-well plates, were treated with increasing concentrations of the synthesized compounds, ranging from […]. After 48 hours of incubation the proliferative cell reagent resazurin was added to the cells. The degree of resazurin reduction, which reflects cell viability, was measured by microplate reader by monitoring the absorbance at 570 nm and 600 nm, according to the manufacturer and the IC50 was determined (Table 1).

MCF7-Cas9 = assay: Growth suppression assay (resazurin); format: cell-based; settings: 48 hours, hydrochloride
Description: as §1, §2

Solubility = format: physicochemical; settings: solvent in which soluble

SMILES | Solubility (Solubility) | also measured
N#Cc1c(-c2ccncc2)[n+]([O-])c2cc(N3CCOCC3)c(F)cc2[n+]1[O-] [1a*HCl, 7-Fluoro-6-(morpholin-4-yl)-3-(pyridin-4-yl)quinoxaline-2-carbonitrile-1,4-dioxide hydrochloride] |  | IC50 (HCT116-Cas9; hydrochloride): 9.3 µM; IC50 (MCF7-Cas9): > 10 µM
N#Cc1c(-c2ccncc2)[n+]([O-])c2cc(F)c(N3CCOCC3)cc2[n+]1[O-] [1b*MsOH, 6-Fluoro-7-(morpholin-4-yl)-3-(pyridin-4-yl)quinoxaline-2-carbonitrile-1,4-dioxide methanesulfonate] |  | IC50 (HCT116-Cas9; methanesulfonate): 3.4 µM
N#Cc1c(-c2ccncc2)[n+]([O-])c2cc(N3CCOCC3)c(F)cc2[n+]1[O-] [Compound 1a, 7-Fluoro-6-(morpholin-4-yl)-3-(pyridin-4-yl)quinoxaline-2-carbonitrile 1,4-dioxide] | Warm DMSO | 
N#Cc1c(-c2ccncc2)[n+]([O-])c2cc(F)c(N3CCOCC3)cc2[n+]1[O-] [Compound 1b, 6-Fluoro-7-(morpholin-4-yl)-3-(pyridin-4-yl)quinoxaline-2-carbonitrile-1,4-dioxide] | Warm DMSO | 
N#Cc1c(-c2cccnc2)[n+]([O-])c2cc(N3CCOCC3)c(F)cc2[n+]1[O-] [Compound 1c, 7-Fluoro-6-(morpholin-4-yl)-3-(pyridin-3-yl)quinoxaline-2-carbonitrile-1,4-dioxide] | Warm DMSO | 
N#Cc1c(-c2cccnc2)[n+]([O-])c2cc(F)c(N3CCOCC3)cc2[n+]1[O-] [Compound 1d, 6-Fluoro-7-(morpholin-4-yl)-3-(pyridin-3-yl)quinoxaline-2-carbonitrile-1,4-dioxide] | Warm DMSO | 
N#Cc1c(-c2cccnc2)[n+]([O-])c2cc(F)c(N3CCCC3)cc2[n+]1[O-] [Compound 1f, 6-Fluoro-7-(pyrrolidin-1-yl)-3-(pyridin-3-yl)quinoxaline-2-carbonitrile-1,4-dioxide] | Warm DMSO | 
N#Cc1c(-c2cccnc2)[n+]([O-])c2cc(F)c(N3CCCCC3)cc2[n+]1[O-] [Compound 1g, 6-Fluoro-7-(piperidin-1-yl)-3-(pyridin-3-yl)quinoxaline-2-carbonitrile-1,4-dioxide] | Warm DMSO | 
